The results in this text go back to the CheMixHub ionic liquid set.

SMILES strings stand for the structures. ± gives the uncertainty stated by the source.

In general, viscosity refers to the resistance of a fluid to flow. The low end stands for a thin fluid, the high end for a thick fluid.

This data set can be described thus: xn = mol fraction of the nth substance listed. The settings on record: for electrical conductivity: 298.15 K.

Take `C1CC[NH2+]C1.O=[N+]([O-])[O-]` + CC1COC(=O)O1: the viscosity is, setting by setting: (283.15 K, 100 kPa, x2 = 0.38) 23 mPa·s; (313.15 K, 100 kPa, x2 = 0) 21 mPa·s; (323.15 K, 100 kPa, x2 = 0.5) 6.1 mPa·s; (333.15 K, 100 kPa, x2 = 0.7) 3.1 mPa·s; (333.15 K, 100 kPa, x2 = 0.78) 2.6 mPa·s; (343.15 K, 100 kPa, x2 = 0.38) 5.2 mPa·s. The viscosity runs as follows: (343.15 K, 100 kPa, x2 = 0.6) 3.4 mPa·s; (343.15 K, 100 kPa, x2 = 0.7) 2.7 mPa·s; (353.15 K, 100 kPa, x2 = 0) 9.3 mPa·s; (353.15 K, 100 kPa, x2 = 0.6) 2.9 mPa·s; (353.15 K, 100 kPa, x2 = 0.7) 2.3 mPa·s. In addition, the electrical conductivity worked out at 0.99 ± 0.15 S/m (100 kPa, x2 = 0.8865) and 0.93 ± 0.15 S/m (100 kPa, x2 = 0.8938).

Consider `C[NH+](C)C.O=S(=O)([N-]S(=O)(=O)C(F)(F)F)C(F)(F)F` + CC1COC(=O)O1, for which the electrical conductivity amounted to 0.003 ± 0.001 S/m (101 kPa, x1 = 0.0001); 0.352 ± 0.014 S/m (101 kPa, x1 = 0.0137); 1.61 ± 0.064 S/m (101 kPa, x2 = 0.6243); 1.64 ± 0.066 S/m (101 kPa, x2 = 0.7417); 1.53 ± 0.061 S/m (101 kPa, x2 = 0.8037); 0.476 ± 0.019 S/m (101 kPa, x2 = 0.979).
